From US20130059730A1, “INSECTICIDAL COMBINATION” (Kyoyu Agri Company, Ltd., priority 2010, published 2013)

Experiments:
Type in all cases: in vivo
[1] = tested on: Two-spotted spider mite (Tetranychus urticae), sensitive strain to hexythiazox, pyridaben and/or fenpyroximate; assay: Example 5: two-spotted spider mite, sensitive strain, egg/larva efficacy (other ratio)
Excerpt: (§1) The action to be expected E for a given active ingredient combination obeys the so-called COLBY formula and can be calculated as follows (COLBY, S.R. “Calculating synergistic and antagonistic responses of herbicide combination”. Weeds, Vol. 15, pages 20-22; 1967): • ppm=milligrams of active ingredient (=a.i.) per liter of spray mixture • X=% action by active ingredient A) using p ppm of active ingredient • Y=% action by active ingredient B) using q ppm of active ingredient.
(§2) According to COLBY, the expected (additive) action of active ingredients A)+B) using p+q ppm of active ingredient is
(§3) If the action actually observed (0) is greater than the expected action (E), then the action of the combination is super-additive, i.e. there is a synergistic effect.
(§4) Two-spotted spider mites (sensitive strain to hexythiazox, pyridaben and/or fenpyroximate) were allowed to oviposit on leaves of kidney beans for one day, and the female adults were then removed. The leaves were sprayed by a rotating application tower at 200 ml/m^2 of the predetermined concentration prepared from a product (e.g. the mixture according to the instant invention and the solo active ingredients). Seven days thereafter, the number of unhatched eggs and dead larvae was examined, whereby the live egg rate (%) was determined. The efficacy (observed %) against eggs and larvae is, therefore, calculated based on the following formula: […]
The Example 5 is conducted with use of two-spotted spider mite (sensitive strain to hexythiazox, pyridaben and/or fenpyroximate) in a manner similar to that of Example 1.

[2] = tested on: Two-spotted spider mite (Tetranychus urticae), sensitive strain to hexythiazox, pyridaben and/or fenpyroximate; assay: Example 1: two-spotted spider mite egg/larva efficacy on sprayed kidney bean leaves; settings: 7 days after spray
Excerpt: as §1, §2, §3, §4

[3] = tested on: Kanzawa spider mite (Tetranychus kanzawai), sensitive strain to hexythiazox, pyridaben and/or fenpyroximate; assay: Example 3: kanzawa spider mite, sensitive strain, egg/larva efficacy
Excerpt: as §1, §2, §3, §4
The Example 3 is conducted with use of kanzawa spider mite (sensitive strain to hexythiazox, pyridaben and/or fenpyroximate) in a manner similar to that of Example 1.

[4] = tested on: Kanzawa spider mite (Tetranychus kanzawai), resistant strain to hexythiazox, pyridaben and/or fenpyroximate; assay: Example 4: kanzawa spider mite, resistant strain, egg/larva efficacy
Excerpt: as §1, §2, §3, §4
The Example 4 is conducted with use of kanzawa spider mite (resistant strain to hexythiazox, pyridaben and/or fenpyroximate) in a manner similar to that of Example 1.

[5] = tested on: Two-spotted spider mite (Tetranychus urticae), resistant strain to hexythiazox, pyridaben and/or fenpyroximate; assay: Example 2: two-spotted spider mite, resistant strain, egg/larva efficacy
Excerpt: as §1, §2, §3, §4
The Example 2 is conducted with use of two-spotted spider mite (resistant strain to hexythiazox, pyridaben and/or fenpyroximate) in a manner similar to that of Example 1.

Molecule: CCOc1cc(C(C)(C)C)ccc1C1COC(c2c(F)cccc2F)=N1 (centres unmarked) [Etoxazole, etoxazole]
- observed (%) efficacy against eggs and larvae ([1]; rate 0.06 ppm): 0.0%
- observed (%) efficacy against eggs and larvae ([1]; rate 0.13 ppm): 15.1%
- observed (%) efficacy against eggs and larvae ([2]; rate 0.16 ppm): 40.6%
- observed (%) efficacy against eggs and larvae ([2]; rate 0.31 ppm): 77.7%
- observed (%) efficacy against eggs and larvae ([3]; rate 0.16 ppm): 13.6%
- observed (%) efficacy against eggs and larvae ([3]; rate 0.31 ppm): 60.8%
- observed (%) efficacy against eggs and larvae ([4]; rate 0.63 ppm): 19.4%
- observed (%) efficacy against eggs and larvae ([4]; rate 1.25 ppm): 70.1%
- observed (%) efficacy against eggs and larvae ([5]; rate 0.63 ppm): 9.3%
- observed (%) efficacy against eggs and larvae ([5]; rate 1.25 ppm): 10.5%

Molecule: abamectin
- observed (%) efficacy against eggs and larvae ([1]; rate 0.19 ppm): 8.7%
- observed (%) efficacy against eggs and larvae ([1]; rate 0.38 ppm): 5.0%
- observed (%) efficacy against eggs and larvae ([2]; rate 0.06 ppm): 0.0%
- observed (%) efficacy against eggs and larvae ([2]; rate 0.11 ppm): 9.4%
- observed (%) efficacy against eggs and larvae ([3]; rate 0.06 ppm): 2.1%
- observed (%) efficacy against eggs and larvae ([3]; rate 0.11 ppm): 1.3%
- observed (%) efficacy against eggs and larvae ([4]; rate 0.23 ppm): 6.3%
- observed (%) efficacy against eggs and larvae ([4]; rate 0.45 ppm): 43.6%
- observed (%) efficacy against eggs and larvae ([5]; rate 0.23 ppm): 0.9%
- observed (%) efficacy against eggs and larvae ([5]; rate 0.45 ppm): 6.4%
